{"source": "patent US10729723B2", "about": "“Method for inducing cell reprogramming, and method for producing pluripotent cells” (NATIONAL UNIVERSITY CORPORATION KUMAMOTO UNIVERSITY, priority 2014, dated 2020)", "key": {"HDF cells [1]": {"system": "HDF cells", "test": "MTT assay (measurement of cell death by colorimetric method)", "format": "cell-based", "conditions": "HDF cells with 70S ribosome fraction, 2 days", "experimental": "(§1) In the presence of an endocytosis inhibitor shown in the following Table, the cell-cluster forming ability was examined using the Lactobacillus 70S ribosome fraction prepared in Example 6. The 70S ribosome fraction was placed into a 96-well plate (0.5 μg/50 μl/well), HDF cells (20,000 cells/100 μl) were added, and each inhibitor (50 μl) was added. The cells were cultured in a CO2 incubator for 2 days, and the number of the formed cell-clusters was measured. The inhibitor was used with the concentration shown in Table being the standard concentration (concentration “5” in FIG. 9). Accordingly, for example, in the case of CP, the concentration “5” is 10 μM, and the concentration “10” is 20 μM. In addition, the MTT assay (measurement of cell death by colorimetric method) was conducted."}, "HDF cells [2]": {"system": "HDF cells", "test": "influence of endocytosis inhibitor on cell-cluster formation by Lactobacillus 70S ribosome fraction", "format": "cell-based, Human", "conditions": "70S ribosome fraction 0.5 μg/50 μl/well, HDF cells 20,000 cells, cultured 2 days", "experimental": "as §1"}}, "data": [{"compound": "C[C@@H]1[C@H](O)[C@@H](C)/C=C/C=C/CC/C=C/C=C/C=C/C=C/C(O[C@H]2O[C@H](C)[C@@H](O)[C@H](N)[C@@H]2O)CC2O[C@](O)(CC(O)C(O)CCC(O)CC(O)CC(O)CC(=O)O[C@H]1C)CC(O)C2C(=O)O", "note": "(stereo partly shown) [NY, Nystatin]", "values": [{"measurement": "toxicity of inhibitor, considered cause of decreased cell-cluster number (MTT assay, cell survival ratio)", "setting": "HDF cells [1]", "value": "toxicity"}, {"measurement": "number of the formed cell-clusters in the presence of inhibitor", "setting": "HDF cells [2]", "value": "decreased"}]}, {"compound": "CN(C)CCCN1c2ccccc2Sc2ccc(Cl)cc21", "note": "[CP, Chlorpromazine]", "values": [{"measurement": "number of the formed cell-clusters in the presence of inhibitor", "setting": "HDF cells [2]", "value": "decreased"}]}, {"compound": "Methyl-β-cyclodextrin [MC]", "values": [{"measurement": "number of the formed cell-clusters in the presence of inhibitor", "setting": "HDF cells [2]", "value": "increased concentration-dependently"}]}]}
